In one assay the test system is T lymphocyte. The assay is described as follows: T lymphocyte transformation test (ConA-stimulated spleen cells of treated mice, MTT). In kind it is in vivo, BALB/c mice. The following applies: for X ± SD (stimulation index): healthy mice, saline 1.3 ± 0.1; for effect on T lymphocyte transformation (summary): statistically significant difference from saline in any of the dosage groups 0.5-500 μg/kg/day. In outline: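 Mice (10/group) received substances i.p. in 0.5 ml saline daily for 15 days; next day splenocytes (1×10^6/ml) were cultured 66 h at 37 °C with or without ConA (100 μg/ml stock added). MTT was added for 4 h and OD570 (ref 630 nm) read; stimulation index = mean ConA OD / mean control OD per mouse.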

For assay [1], the system named is Sheep red blood cells (SRBC). The assay is described as follows: Humoral immunity (SRBC hemolysis index) of mice bearing transplanted B16 melanoma. The following applies: saline 19.0 ± 9.1. On the set-up: key: index = (OD540 sample ÷ reference OD540) × 500. The format is in vivo, C57BL/6 mice. As for the experimental part:
Intraperitoneal injection, once per day. […] Treatment of all groups with testing substance lasted for 30 days or until the animal died unless otherwise specified.
Stock B16 mouse melanoma cells were incubated in DMEM/F12 medium supplemented with 10% fetal bovine serum, 37° C./5% CO2 for 72 hrs, then washed 3-4 times with Hank's solution. The cell concentration was adjusted to 1×10^5 per ml with Hank's solution and 0.1 ml of the cell suspension was injected via the tail vein into the testing mice to generate the B16 melanoma bearing animal model. Treatment with test substance started as described in section Method 1.
Sheep red blood cells (SRBC) were prepared by collecting blood from the cervical vein and put into a sterile flask with glass beads. The flask was shaken for 3 minutes and the blood then mixed with Alsever solution (glucose 2.05 g, NaCl 0.4 g, […] 0.8 g, adjust to 100 ml with distilled water) and stored at 4° C. Immediately before use, samples were centrifuged at 130 g, 5 minutes to collect the SRBC. The cells were washed two times by re-suspension and centrifugation in normal saline. Then the cell pellet was collected by centrifugation at 180 g for 10 minutes and re-suspended in saline to make the final working SRBC suspension, 2% (v/v).
Complement was prepared by adding 10 volumes of fresh Cavy serum into one volume centrifuge packed SRBC, and then gently shaken for 30 minutes at 4° C. The SRBC was removed by centrifugation at 200 g for 10 minutes. 10 volumes of normal saline were added to obtain the working complement solution.
On the testing animals, on the 27th date of test substance treatment, 0.2 ml of the working SRBC cell suspension was injected into each animal to raise antibody. On the day after the last test substance administration, blood was collected from the eye canthus and left at room temperature for one hour for serum exudation. After centrifugation at 200 g for 10 minutes, the collected serum was diluted by 500 times with normal saline.
To 1 ml diluted mouse serum of each mouse, 0.5 ml SRBC suspension was added. Ice cold. Then 1 ml working complement solution was added and incubated at 37° C. water bath for 10 minutes. Reactions were terminated by ice cold. Samples were then centrifuged at 200 g for 10 minutes to obtain the supernatant.
To 1 ml of this supernatant, 3 ml Drabkin solution was added and left at room temperature for 10 minutes. OD540 nm was obtained.
Reference OD540 nm was obtained by mixing 0.25 ml SRBC suspension with Drabkin solution to 4 ml and placed at room temperature for 10 minutes before OD540 nm was taken. Hemolysis index=(OD540 nm of test sample÷reference OD540 nm)×500 6.2 After the Humoral Immunity Study, the Mice were Killed by Cervical Vertebra Dislocation. Postmortem Examination of the Animals was Performed. The Pathological Changes were Recorded, and the Numbers of Melanoma Lung Metastasis Foci Were Counted. Results

For the next assay, the system named is interferon (IFN). On the set-up: species or system BALB/c mice. The note with it: mouse, in vivo; for activity of T lymphocyte in secreting IFN, X ± SD (IU): ip.
The mark [2] stands for this setting: peptide 5 μg/kg/day i.p. 15 days (IFN-γ, IL-2 3×10^5 IU/kg/day).
Where [3] appears, read: peptide 50 μg/kg/day i.p. 15 days (IFN-γ, IL-2 3×10^5 IU/kg/day).
The mark [4] stands for this setting: peptide 0.5 μg/kg/day i.p. 15 days (IFN-γ, IL-2 3×10^5 IU/kg/day).
The mark [5] stands for this setting: peptide 500 μg/kg/day i.p. 15 days (IFN-γ, IL-2 3×10^5 IU/kg/day).

Values joined by “and” are separate entries in the source; they are usually repeats but may differ in a detail not shown here. Identical values can stand only once. Marks after values point to notes of the source that are not given here. Ends that are not written are not given here.

Consider FNFVPP [CMS003], for which the “X ± SD (stimulation index)” value in the assay with T lymphocyte (setting [2]) is 1.6 ± 0.2; in the assay with T lymphocyte (setting [3]), 2.2 ± 0.5*^@^. The “effect on T lymphocyte transformation (summary)” value with T lymphocyte is “enhance”. Further, the Hemolysis index in assay [1] (dose 0.5 μg/kg) is reported as 61.6 ± 26.9*^$; in assay [1] (dose 5 μg/kg), 37.2 ± 15.9*^$; in assay [1] (dose 50 μg/kg), 38.7 ± 13.5*^$; in assay [1] (dose 500 μg/kg), 35.9 ± 13.0*^$. The “effect on the secretion of IFN by T lymphocytes (summary)” value (shortened to “effect on the secretion of IFN”) with interferon (IFN) is reported as “enhance”. The “activity of T lymphocyte in secreting IFN, X ± SD (IU)” value (from here on “activity … X ± SD (IU)”) with interferon (IFN) was determined as 106 ± 16 IU.

As to IGMESAGIHETTY [CMS016], the Hemolysis index in assay [1] (dose 500 μg/kg) is given as 43.3 ± 29.9. In the assay on interferon (IFN), the “effect on the secretion of IFN” value is “enhance” and the “activity … X ± SD (IU)” value was 162 ± 19*^@^ IU.

As to KAVGHLDDLPGAL [CMS008], the “X ± SD (stimulation index)” value is 1.7 ± 0.3 in the assay on T lymphocyte (setting [4]) and 1.7 ± 0.1 in the assay on T lymphocyte (setting [5]). In addition, the “effect on T lymphocyte transformation (summary)” value in the assay with T lymphocyte was “enhance”. Further, the Hemolysis index in assay [1] (dose 0.5 μg/kg) is 42.7 ± 18.4*^$; in assay [1] (dose 5 μg/kg), 38.9 ± 12.0*^$; in assay [1] (dose 50 μg/kg) it was 37.1 ± 16.7*^$; in assay [1] (dose 500 μg/kg), 50.1 ± 17.8*^$.

With LGMQACGIHETTY [CMS012], the “X ± SD (stimulation index)” value in the assay on T lymphocyte (setting [5]) stood at 1.6 ± 0.2. For the same molecule, the “effect on T lymphocyte transformation (summary)” value in the assay with T lymphocyte was “enhance”. Further, in the assay with interferon (IFN), the “effect on the secretion of IFN” value was “enhance” and the “activity … X ± SD (IU)” value was determined as 86 ± 9 IU.

Consider LRVAPQQHPTL [CMS009], for which the “X ± SD (stimulation index)” value in the assay on T lymphocyte (setting [5]) stood at 1.7 ± 0.2. Besides, the “effect on T lymphocyte transformation (summary)” value with T lymphocyte is given as “enhance”. Besides, in the assay on interferon (IFN), the “effect on the secretion of IFN” value is listed as “enhance” and the “activity … X ± SD (IU)” value is 121 ± 15*^ IU.

As to PTTKTYFPHF [CMS001], the figures for the “X ± SD (stimulation index)” value with T lymphocyte (setting [2]) and with T lymphocyte (setting [3]) were 1.7 ± 0.2 and 2.2 ± 0.5*^@^, respectively. Also, in the assay with T lymphocyte, the “effect on T lymphocyte transformation (summary)” value is “enhance”. The Hemolysis index is 51.0 ± 16.2*^$ in assay [1] (dose 0.5 μg/kg), 41.3 ± 17.7*^$ in assay [1] (dose 5 μg/kg), 45.0 ± 31.9*^$ in assay [1] (dose 50 μg/kg) and 36.0 ± 10.2*^$ in assay [1] (dose 500 μg/kg). Further, the “effect on the secretion of IFN” value with interferon (IFN) is recorded as “enhance”. Moreover, the “activity … X ± SD (IU)” value with interferon (IFN) worked out at 110 ± 15 IU.

Consider “Phe Val Asn Asp (FVND; listed as Sus scrofa) [CMS035]”, for which the Hemolysis index is recorded as 38.9 ± 21.2*^$ in assay [1] (dose 5 μg/kg), 44.7 ± 22.7*^$ in assay [1] (dose 50 μg/kg) and 40.5 ± 25.8 in assay [1] (dose 500 μg/kg).

For the molecule “Pro Gln Asn Phe (PQNF; printed: Pro Gln Asn Phe) [CMS034]”, in the assay on T lymphocyte (setting [2]), the “X ± SD (stimulation index)” value was found to be 1.5 ± 0.2. Further, the “effect on T lymphocyte transformation (summary)” value in the assay with T lymphocyte is listed as “enhance”. The results for the Hemolysis index in assay [1] (dose 0.5 μg/kg), in assay [1] (dose 5 μg/kg) and in assay [1] (dose 50 μg/kg) were 50.8 ± 18.4*^$, 43.0 ± 11.7*^$ and 30.2 ± 10.9, respectively.

For the molecule “Pro Ser Ile Vat Gly Arg Pro Arg His Gln Gly Val Met (PSIVGRPRHQGVM; listed as Sus scrofa) [CMS015]”, in the assay with T lymphocyte (setting [5]), the “X ± SD (stimulation index)” value is 1.9 ± 0.3*^@^. The “effect on T lymphocyte transformation (summary)” value with T lymphocyte was “enhance”.

In the case of RVAPQQHPTL [CMS011], the “X ± SD (stimulation index)” value in the assay on T lymphocyte (setting [4]) came out at 1.6 ± 0.4. Also, the “effect on T lymphocyte transformation (summary)” value in the assay on T lymphocyte is on record as “enhance”. Further, the Hemolysis index in assay [1] (dose 0.5 μg/kg) turned out to be 32.0 ± 14.7; in assay [1] (dose 500 μg/kg), 34.4 ± 19.4. Also, in the assay on interferon (IFN), the “effect on the secretion of IFN” value is “enhance”. The “activity … X ± SD (IU)” value in the assay on interferon (IFN) turned out to be 89 ± 18 IU.

For the molecule “Tyr Ser Leu (YSL; listed as Sus scrofa) [CMS024]”, the Hemolysis index in assay [1] (dose 0.5 μg/kg) is 43.0 ± 10.7*^$; in assay [1] (dose 5 μg/kg), 42.2 ± 11.8*^$; in assay [1] (dose 50 μg/kg) it was 27.8 ± 9.1; in assay [1] (dose 500 μg/kg), 30.1 ± 10.0.

In the case of “Tyr Ser Phe (YSF; listed as Sus scrofa) [CMS022]”, in the assay with interferon (IFN), the “effect on the secretion of IFN” value is on record as “enhance” and the “activity … X ± SD (IU)” value is 145 ± 13*^@^ IU.

For VAPEEHPTLLTEAPLNPK [CMS010], the “X ± SD (stimulation index)” value in the assay with T lymphocyte (setting [4]) is reported as 1.7 ± 0.3; in the assay with T lymphocyte (setting [5]), 2.0 ± 0.3*^@^. Further, the “effect on T lymphocyte transformation (summary)” value in the assay on T lymphocyte was “enhance”. Besides, the Hemolysis index in assay [1] (dose 0.5 μg/kg) is 34.9 ± 10.5*^$; in assay [1] (dose 5 μg/kg) it was 51.0 ± 14.6*^$; in assay [1] (dose 50 μg/kg) it was 39.6 ± 7.7*^$; in assay [1] (dose 500 μg/kg), 50.1 ± 16.7*^$. For the same molecule, the “effect on the secretion of IFN” value in the assay on interferon (IFN) was “enhance”. Further, the “activity … X ± SD (IU)” value with interferon (IFN) was 167 ± 13*^@^ IU and 142 ± 18*^@^ IU.

VGMGQKDSY: the “X ± SD (stimulation index)” value in the assay with T lymphocyte (setting [5]) turned out to be 1.8 ± 0.3. Moreover, the “effect on T lymphocyte transformation (summary)” value in the assay with T lymphocyte is recorded as “enhance”. For the same molecule, the Hemolysis index is 42.0 ± 12.0*^$ in assay [1] (dose 0.5 μg/kg), 35.4 ± 15.1*^$ in assay [1] (dose 5 μg/kg) and 28.3 ± 7.6 in assay [1] (dose 50 μg/kg).

B1: IFN-γ: recombinant mouse IFN-γ (rmIFN-γ), Beijing Biotech Inc.; positive control (protein, UniProt P01580 23-155, looked up)
Interferon gamma: HGTVIESLESLNNYFNSSGIDVEEKSLFLDIWRNWQKDGDMKILQSQIISFYLRLFEVLKDNQAISNNISVIESHLITTFFSNSKAKKDAFMSIAKFEVNNPQVQRQAFNELIRVVHQLLPESSLRKRKRSRC
In the case of B1, the “X ± SD (stimulation index)” value is listed as 1.6 ± 0.2 in the assay on T lymphocyte (setting [4]), 1.6 ± 0.2 in the assay on T lymphocyte (setting [2]), 1.7 ± 0.2 in the assay on T lymphocyte (setting [3]) and 1.6 ± 0.2 in the assay with T lymphocyte (setting [5]). The molecule further registered a Hemolysis index in assay [1] (controls: rhIL-2, rmIFN-γ 3 × 10^5 IU/kg, cyclophosphamide 20 mg/kg) of 60.5 ± 17.4. For the same molecule, the “activity … X ± SD (IU)” value in the assay with interferon (IFN) is 139 ± 16 IU and 125 ± 18 IU and 124 ± 16 IU.

These data come from patent US20060167229A1, “Biologically active peptide conjugates” (priority 2002, published 2006).
